# Test results: patent US20180243421A1, “IMMUNOSTIMULATING AGENT” (AJINOMOTO CO., INC., priority 2015, published 2018)
# Legend:
# [1] = test system: anti-OVA-specific IgG1 subclass antibody; test: Adjuvant activity: anti-OVA-specific IgG1 subclass antibody in serum after secondary immunization (Examples 1, 5, 7, 8; ELISA absorbance); format: in vivo, BALB/c mice
# Procedure: Two weeks from the secondary immunization, the whole blood was extracted under anesthesia, and the obtained serum sample was measured for anti-OVA-specific IgG1 subclass antibody.
# A method for measurement of the anti-OVA-specific IgG1 subclass antibody in Example 1, and the following Examples 5, 7 and 8 is as follows.
# Measurement Method of anti-OVA-specific IgG1 Subclass Antibody
# To a 96 well plate was added 5 μg/ml OVA at 100 μl/well, and the mixture was incubated at 4° C. overnight. After incubation, the mixture was washed three times with 200 μl of PBS-T (PBS+0.05%(v/v) Tween 20) per well, and blocked with 100 μl of 5% FCS/PBS solution per well at room temperature for 1 to 2 hr. Thereafter, the mixture was washed three times with PBS-T (200 μl/well), a diluted serum sample (100 μl/well) or the same amount of 5% FCS/PBS solution as a control was added, and the mixture was incubated at 37° C. for 1 hr. Thereafter, the mixture was washed five times with PBS-T (200 μl/well), a diluted biotinylated anti-mouse IgG1 antibody (100 μl/well) was added, and the mixture was incubated at 37° C. for 45 min. Thereafter, the mixture was washed five times with PBS-T (200 μl/well), a diluted anti-biotin-HRP antibody was added (100 μl/well), and the mixture was incubated at 37° C. for another 30 min. Thereafter, the mixture was washed five times with PBS-T (200 μl/well), TMB substrate solution was added (100 μl/well), and the mixture was incubated at room temperature for 10 to 15 min. Thereafter, a reaction quenching liquid (2N sulfuric acid solution) was added (50 μl/well) to discontinue a color developing reaction, and the absorbance (OD Value=450 nm) was measured by a microplate reader.
# [2] = test system: anti-OVA-specific IgE antibody; conditions: mouse, in vivo
# Procedure: The serum sample obtained in Example 1 was measured for an anti-OVA-specific IgE antibody. The measurement method of the anti-OVA-specific IgE antibody in Example 3 and Examples 6, 9 is as follows.
# Measurement Method of anti-OVA-specific IgE Antibody
# DS mouse IgE ELISA (OVA) kit manufactured by DS Pharma Biomedical Co., Ltd. was used. The protocol is briefly shown below.
# The serum sample and a standard reagent for drawing an analytical curve are diluted with a buffer and, after stirring, left standing at room temperature for 10 min. The sample and the standard solution are added to a plate bound with an IgE capture antibody in advance and, after stirring, the mixture is left standing at room temperature for 60 min. The mixture is washed three times with wash, HRP-labeled OVA is added, and the mixture is left standing at room temperature for 30 min. The mixture is washed three times with wash, a substrate solution is added, and the mixture is left standing in dark at room temperature for 30 min. A reaction quenching liquid is added, the mixture is stirred, and the absorbance (OD Value=450 nm) is immediately measured.
# This test was performed in the same manner as in Example 3 except that N^2-hexadecanoyl-L-arginine (SZ61), N-hexadecanoylagmatine (SZ62), N^2-hexadecanoyl-L-arginine methyl ester hydrochloride (SZ63), N^2-octadecanoyl-L-glutamine tert-butyl ester (SZ64), and N^2-octadecanoyl-L-glutamine (SZ65) were used.
# This test was performed in the same manner as in Example 6 except that N-hexadecanoylagmatine (SZ62), N^2-octadecanoyl-L-glutamine tert-butyl ester (SZ64), N-docosanoyl-L-leucine methyl ester (SZ70), and N-docosanoyl-L-phenylalanine methyl ester (SZ71) were used and a positive control adjuvant Addavax™ (InvivoGen) administration group was formed.
# The allergy inducing activity test was performed in the same manner as in Example 3 except that Addavax™, N-(2-octadecyleicosanoyl)-L-leucine methyl ester (SZ86), N-hexadecanoyl-L-leucinamide (SZ90), N^2-hexadecanoyl-N^1,N^1-diethyl-L-leucinamide (SZ92), N^2-hexadecanoyl-L-arginine hexyl ester hydrochloride (SZ99) and N^2-docosanoyl-N^1,N^1-diethyl-L-glutamic acid 1-amide (SZ106) were used.
# The allergy inducing activity test was performed in the same manner as in Example 3 except that Addavax™, N-(2-octadecyleicosanoyl)-L-leucine methyl ester (SZ86), N-hexadecanoyl-L-leucinamide (SZ90), N^2-hexadecanoyl-N^1,N^1-diethyl-L-leucinamide (SZ92), N-hexadecanoyl-L-leucine hexyl ester (SZ97), N^2-docosanoyl-N^1,N^1-diethyl-L-glutamic acid 1-amide (SZ106) and N-docosanoylagmatine hydrochloride (SZ108) were used.
# 8-Week-old female BALB/c mice were divided into groups (N=6), and each group was primarily immunized by dorsal-subcutaneous administration of (1) ovalbumin (OVA) (5 μg) dissolved in saline as an antigen (OVA single administration group), (2) OVA (10 μg) and aluminum hydroxide salt dissolved in saline (Alum administration group), (3) OVA 10 μg and Addavax™ (mixed with saline at 1:1) dissolved in saline (Addavax™ administration group), (4) OVA 10 μg and CpG 5 μg dissolved in saline (CpG administration group), (5) OVA 10 μg and MPL 5 μg dissolved in saline (MPL administration group), (6) OVA (5 μg) and SZ62 (0.256 μmol) dissolved or dispersed in 5% αCD-added saline (SZ62 administration group), (7) OVA (5 μg), SZ62 (0.256 μmol) and CpG 5 μg dissolved or dispersed in 5% αCD-added saline (SZ62+CpG administration group), (8) OVA 10 μg, Addavax™ (mixed with saline at 1:1) and CpG 5 μg dissolved in saline (Addavax™+CpG administration group), (9) OVA (5 μg), SZ62 (0.256 μmol) and MPL 5 μg dissolved or dispersed in 5% αCD-added saline (SZ62+MPL administration group), (10) OVA (10 μg), aluminum hydroxide salt (Alum) and MPL 5 μg dissolved in saline (Alum+MPL administration group), each per mouse. One week later, the secondary immunization was carried out by dorsal-subcutaneous administration of solutions or dispersions similar to those of the above-mentioned (1) to (10) again.
# [3] = test system: anti-OVA-specific IgG1 subclass antibody; test: Adjuvant activity after primary immunization: anti-OVA-specific IgG1 subclass antibody in serum (Examples 13-18); format: in vivo, BALB/c mice; conditions: OVA 5 μg + 0.256 μmol in 5% αCD saline s.c., serum after 12 days; for anti-OVA-specific IgG1 subclass antibody production after primary immunization: Example 13
# Procedure: 8-Week-old female BALB/c mice were divided into groups (N=6), and each group was primarily immunized by dorsal-subcutaneous administration of (1) ovalbumin (OVA) (5 μg) dissolved in saline as an antigen (OVA single administration group), (2) OVA (5 μg) and SZ83 (0.256 μmol) dissolved or dispersed in 5% αCD-added saline (SZ83 administration group), (3) OVA (5 μg) and SZ84 (0.256 μmol) dissolved or dispersed in 5% αCD-added saline (SZ84 administration group), (4) OVA (5 μg) and SZ86 (0.256 μmol) dissolved or dispersed in 5% αCD-added saline (SZ86 administration group), (5) OVA (5 μg) and SZ89 (0.256 μmol) dissolved or dispersed in 5% αCD-added saline (SZ89 administration group), (6) OVA (5 μg) and SZ90 (0.256 μmol) dissolved or dispersed in 5% αCD-added saline (SZ90 administration group), each per mouse. After 12 days, blood samples were collected under anesthesia, and the obtained serum samples were subjected to the measurement of an anti-OVA-specific IgG1 subclass antibody.
# Measurement Method of Concentration of anti-OVA-specific IgG1 Subclass Antibody and anti-OVA-specific IgG2a Subclass Antibody
# To a 96 well plate was added 5 μg/ml OVA at 100 μl/well, and the mixture was incubated at 4° C. overnight. After incubation, the mixture was washed three times with 200 μl of PBS-T (PBS+0.05% (v/v) Tween 20) per well, and blocked with 100 μl of 5% FCS/PBS solution per well at room temperature for 1 to for 2 hr. Thereafter, the mixture was washed three times with PBS-T (200 μl/well), a diluted serum sample (100 μl/well) or the same amount of 5% FCS/PBS solution as a control was added, to and the mixture was incubated at 37° C. for 1 hr. To calculate concentration of the antibody, the standard of an anti-OVA-specific IgG1 subclass antibody diluted with 2% FCS/PBS solution was added at 100 ng/ml, 50 ng/ml, 25 ng/ml, 12.5 ng/ml, 6.25 ng/ml, 3.125 ng/ml, 1.56 ng/ml, 0.781 ng/ml, 0.391 ng/ml, 0.195 ng/ml, 0.098 ng/ml, 0 ng/ml, per 1 well. When an anti-OVA-specific IgG2a subclass antibody was measured, the standard of an anti-OVA-specific IgG2a subclass antibody was added at 50 ng/ml, 25 ng/ml, 12,5 ng/ml, 6.25 ng/ml, 3.125 ng/ml, 1.56 ng/ml, 0.781 ng/ml, 0.391 ng/ml, 0.195 ng/ml, 0.098 ng/ml, 0.049 ng/ml, 0 ng/ml, per 1 well. […] Thereafter, the mixture was washed five times with PBS-T (200 μl/well), a diluted anti-biotin-HRP antibody was added (100 μl/well), and the mixture was incubated at 37° C. for another 30 min. Thereafter, the mixture was washed five times with PBS-T (200 μl/well), TMB substrate solution was added (100 μl/well), and the mixture was incubated at room temperature for 10- for 15 min. Thereafter, a reaction quenching liquid (2N sulfuric acid solution) was added (50 μl/well) to discontinue a color developing reaction, and the absorbance (OD Value=450 nm) was measured by a microplate reader. A standard curve was drawn from the measured OD values, and the concentration was calculated.
# 8-Week-old female BALB/c mice were divided into groups (N=6), and each group was primarily immunized by dorsal-subcutaneous administration of (1) ovalbumin (OVA) (5 μg) dissolved in saline as an antigen (OVA single administration group), (2) OVA (5 μg) and SZ92 (0.256 μmol) dissolved or dispersed in 5% αCD-added saline (SZ92 administration group), (3) OVA (5 μg) and SZ94 (0.256 μmol) dissolved or dispersed in 5% αCD-added saline (SZ94 administration group), (4) OVA (5 μg) and SZ95 (0.256 μmol) dissolved or dispersed in 5% αCD-added saline (SZ95 administration group), (5) OVA (5 μg) and SZ96 (0.256 μmol) dissolved or dispersed in 5% αCD-added saline (SZ96 administration group), each per mouse. After 12 days, blood samples were collected under anesthesia, and the obtained serum samples were subjected to the measurement of anti-OVA-specific IgG1 subclass antibody.
smiles,measurement,setting,value
"CCCCCCCCCCCCCCCCCC(=O)N[C@@H](CCC(N)=O)C(=O)O [SZ65, N^2-octadecanoyl-L-glutamine]",adjuvant activity (IgG1) compared with Alum,[1]; Example 5,equivalent to or not less than that of Alum
same,anti-OVA-specific IgG1 subclass antibody production as compared to the OVA single administration group,"[1]; Example 5, same manner as Example 1",significantly increased
same,allergy inducing activity as compared to aluminum hydroxide gel adjuvant,[2],lower allergy inducing activity
same,anti-OVA-specific IgE antibody production as compared to the OVA single administration group,[2],a significant increase in the anti-OVA-specific IgE antibody production was not observed
"CCCCCCCCCCCCCCCCCCCCCC(=O)N[C@@H](Cc1ccccc1)C(=O)OC [SZ71, N-docosanoyl-L-phenylalanine methyl ester]",adjuvant activity (IgG1) compared with Alum,[1]; Example 7,equivalent to or not less than that of Alum
same,anti-OVA-specific IgG1 subclass antibody production compared with Alum,[1]; Example 7,equivalent to or not less than that of Alum
same,anti-OVA-specific IgG1 subclass antibody production as compared to the OVA single administration group,"[1]; Example 7, same manner as Example 1, plus Addavax group",a significant difference was not found
same,allergy inducing activity as compared to aluminum hydroxide gel adjuvant and Addavax,[2],lower allergy inducing activity
"COC(=O)[C@H](CC(C)C)NC(C)=O [SZ83, N-acetyl-L-leucine methyl ester]",anti-OVA-specific IgG1 subclass antibody production after primary immunization,[3],show a tendency to increase
"CCCCCC(=O)N[C@@H](CC(C)C)C(=O)OC [SZ84, N-hexanoyl-L-leucine methyl ester]",anti-OVA-specific IgG1 subclass antibody production after primary immunization,[3],show a tendency to increase
"CCCCCCCCCCCCCCCC(=O)N[C@@H](CC(C)C)C(=O)OC(C)(C)C [SZ89, N-hexadecanoyl-L-leucine tert-butyl ester]",anti-OVA-specific IgG1 subclass antibody production after primary immunization,[3],show a tendency to increase
"CCCCCCCCCCCCCCCC(=O)N[C@@H](Cc1c[nH]cn1)C(=O)OC [SZ94, N-hexadecanoyl-L-histidine methyl ester]",anti-OVA-specific IgG1 subclass antibody production after primary immunization as compared to the OVA single administration group,[3]; Example 14,tended to increase
"CCCCCCCCCCCCCCCC(=O)N1CCC[C@H]1C(=O)OC [SZ95, N-hexadecanoyl-L-proline methyl ester]",anti-OVA-specific IgG1 subclass antibody production after primary immunization as compared to the OVA single administration group,[3]; Example 14,tended to increase
"CCCCCCCCCCCCCCCC(=O)N[C@@H](CO)C(=O)OC [SZ96, N-hexadecanoyl-L-serine methyl ester]",anti-OVA-specific IgG1 subclass antibody production after primary immunization as compared to the OVA single administration group,[3]; Example 14,tended to increase
"CCCCCCCCCCCCCCCC(=O)N[C@@H](CCCNC(=N)N)C(=O)N(CC)CC.Cl [SZ110, N^2-hexadecanoyl-N^1,N^1-diethyl-L-arginine amide hydrochloride salt]",anti-OVA-specific IgG1 subclass antibody production after primary immunization as compared to the OVA single administration group,[3]; Example 16,tended to increase
